PubChem BioAssay (NCI)
Several values for one entry are separate records, joined by “and”; a condition that tells them apart may be missing. Equal values may be shown once.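 Assay format: 96-well plates, 48-hour exposure. GI50 = concentration required for 50% inhibition of growth. Definition used: TGI = concentration required for complete inhibition of growth.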

Experiments:
Test in all cases: DTP human tumour cell line panel, 48 h
T-47D breast = system: T-47D breast
TK-10 renal = system: TK-10 renal
HCT-15 colon = system: HCT-15 colon
A498 renal = system: A498 renal
UACC-257 melanoma = system: UACC-257 melanoma
SK-MEL-2 melanoma = system: SK-MEL-2 melanoma
PC-3 prostate = system: PC-3 prostate
SW-620 colon = system: SW-620 colon
UACC-62 melanoma = system: UACC-62 melanoma
SF-268 CNS = system: SF-268 CNS

SMILES	GI50 (T-47D breast)	TGI (T-47D breast)	GI50 (TK-10 renal)	TGI (TK-10 renal)	GI50 (HCT-15 colon)	TGI (HCT-15 colon)	GI50 (A498 renal)	TGI (A498 renal)	GI50 (UACC-257 melanoma)	TGI (UACC-257 melanoma)	GI50 (SK-MEL-2 melanoma)	TGI (SK-MEL-2 melanoma)	GI50 (PC-3 prostate)	TGI (PC-3 prostate)	GI50 (SW-620 colon)	TGI (SW-620 colon)	GI50 (UACC-62 melanoma)	TGI (UACC-62 melanoma)	GI50 (SF-268 CNS)	TGI (SF-268 CNS)
CN1CCN(C(=O)c2ccc(NC(=O)Nc3ccc(N(C)c4ccnc(Nc5ccc(CS(C)(=O)=O)cc5)n4)cc3)cc2)CC1	4.68 µM	19.7 µM	> 25 µM	> 25 µM	> 25 µM	> 25 µM	> 25 µM	> 25 µM	> 25 µM	> 25 µM	> 12.7 µM	> 25 µM	9.09 µM	> 25 µM	11 µM	> 25 µM	9.99 µM	> 25 µM	9.95 µM	> 25 µM
O=C1C(=O)c2cc([N+](=O)[O-])ccc2-c2ccccc21	1.76 µM	3.77 µM	1.77 µM	3.19 µM	1.8 µM	3.59 µM	12.5 µM	25.1 µM	1.7 µM	3.13 µM	1.55 µM	3.05 µM	1.97 µM	3.72 µM	1.54 µM	2.98 µM	1.7 µM	3.13 µM	1.29 µM	2.62 µM
CNC(=O)c1ccc(Nc2ncc(C(F)(F)F)c(NCc3nccnc3N(C)S(C)(=O)=O)n2)cc1	3.47 µM and 3.46 µM and 2.9 µM	> 10 µM and 12.5 µM and 10.4 µM	1.65 µM and 1.7 µM and 3.09 µM	> 10 µM and 10.4 µM and 13.3 µM	2.92 µM and 2.65 µM and 2.57 µM	> 10 µM and 11.3 µM and 12.6 µM	2.02 µM and 1.59 µM and 1.39 µM	5.61 µM and 3.89 µM and 4.18 µM	4.66 µM and 3.75 µM	> 10 µM and 11.2 µM and 15.5 µM	0.783 µM and 1.32 µM and 1.6 µM	3.71 µM and 4.28 µM and 4.63 µM	3.54 µM and 3.41 µM and 2.85 µM	> 10 µM and 14.3 µM and 13.2 µM	2.82 µM and 3.21 µM and 2.74 µM	> 10 µM and 9.82 µM and 11.7 µM	1.76 µM and 1.66 µM and 1.63 µM	> 10 µM and 4.37 µM and 4.24 µM	2.89 µM and 2.23 µM and 2.73 µM	> 10 µM and 8.63 µM and 11 µM
O=C(OC(C(=O)O)C(OC(=O)c1ccccc1)C(=O)O)c1ccccc1 (stereo unspecified) (tested in a mixture with another compound)	–	> 100 µM	–	> 100 µM	–	> 100 µM	–	> 100 µM	–	> 100 µM	–	> 100 µM and 28.7 µM	–	33.5 µM	–	> 100 µM	–	> 100 µM	–	> 100 µM
O=C1C2CC3C(CC2C(=O)[N]1[Sn]([c]1ccccc1)([c]1ccccc1)[c]1ccccc1)C1(Cl)C(Cl)=C(Cl)C3(Cl)C1(Cl)Cl (stereo unspecified)	0.0393 µM	0.22 µM	0.145 µM	0.288 µM	0.054 µM	0.209 µM	0.12 µM	0.276 µM	0.144 µM	0.324 µM	0.167 µM	0.351 µM	0.0958 µM	0.315 µM	0.0636 µM	0.216 µM	0.118 µM	0.288 µM	0.111 µM	0.286 µM
Cc1cc(N(CCOS(C)(=O)=O)CCOS(C)(=O)=O)ccc1C=Nc1ccc(-c2csc(-c3ccccc3)n2)c(Cl)c1	–	> 85.2 µM	–	46.1 µM	–	36.1 µM	–	4.67 µM	–	49.3 µM	–	50.5 µM	–	46.5 µM	–	> 64.7 µM	–	20.6 µM	–	54.8 µM
COc1ccc(C(=O)/C=C/c2cc3ccccc3[nH]c2=O)cc1	18.8 µM	> 100 µM	20.9 µM	> 100 µM	20.3 µM	> 59.6 µM	> 38.4 µM	> 100 µM	25.5 µM	> 56.5 µM	23 µM	> 73.8 µM	> 59.7 µM	> 100 µM	18.4 µM	33.2 µM	24.4 µM	> 57.8 µM	18.1 µM	43 µM
C/C(=C\c1ccn(-c2ccc(N)c(C(F)(F)F)c2)n1)[C@@H]1C[C@@H]2O[C@]2(C)CCC[C@H](C)[C@H](O)[C@@H](C)C(=O)C(C)(C)[C@@H](O)CC(=O)O1	0.0164 µM	28.3 µM	0.0548 µM	16.9 µM	0.0109 µM	> 27.8 µM	0.0175 µM	1.31 µM	4.27 µM	> 32.5 µM	0.0241 µM	10.4 µM	0.0119 µM	> 31 µM	0.00743 µM	> 32.5 µM	0.0599 µM	> 16.2 µM	0.0349 µM	> 32.5 µM
Nc1ncc(-c2cnn(C3CCNCC3)c2)cc1-c1nc2ccccc2o1	1.67 µM	4.88 µM	0.924 µM	4.04 µM	0.508 µM	2.5 µM	1.53 µM	3.46 µM	2.04 µM	3.94 µM	1.1 µM	2.72 µM	1.59 µM	6.68 µM	1.09 µM	2.38 µM	1.6 µM	3.07 µM	1.74 µM	4.58 µM
N=c1nc(N)c2cc3c(N)nc(=N)c3cc12	–	47.8 µM	–	57.2 µM	–	> 100 µM	–	> 90.6 µM	–	28.1 µM	–	> 46.5 µM	–	> 100 µM	–	44 µM	–	23.5 µM	–	13.1 µM
COc1ccc(C(=S)c2cc(OC)c(OC)c(OC)c2)cc1OC(=O)CCl	22.1 µM	79.9 µM	32.6 µM	> 100 µM	< 0.01 µM	> 100 µM	0.179 µM	2.5 µM	> 100 µM	> 100 µM	33.1 µM	> 100 µM	< 0.0172 µM	> 100 µM	< 0.0146 µM	> 100 µM	0.0391 µM	> 100 µM	0.054 µM	> 100 µM
O=C(O)C1C2C=CC(O2)C1C(=O)Nc1ccccc1 (stereo unspecified)	–	> 100 µM	–	> 100 µM	–	> 100 µM	–	> 100 µM	–	> 100 µM	–	> 100 µM	–	> 100 µM	–	> 100 µM	–	> 100 µM	–	> 100 µM
COc1cc(N2CCC(N3CCN(C)CC3)CC2)ccc1Nc1ncc(Cl)c(Nc2ccccc2P(C)(C)=O)n1	> 100 µM	> 100 µM	0.296 µM	3.09 µM	2.97 µM	> 40.4 µM	0.305 µM	1.12 µM	38.8 µM	> 100 µM	2.67 µM	30.6 µM	4.19 µM	> 100 µM	1.71 µM	19.6 µM	2.94 µM	> 72.2 µM	1.34 µM	14 µM
CC1=CC2=C(OCO1)C(=O)c1ccccc1C2=O	–	7.47 µM	–	> 81.3 µM	–	51.6 µM	–	29.5 µM	–	7.29 µM	–	2.23 µM	–	> 100 µM	–	21.6 µM	–	9.89 µM	–	26.1 µM
Nc1ccccc1NC(=O)c1ccc(CSc2nc(N3CCOCC3)c3cccn3n2)cc1	0.498 µM	> 100 µM	0.163 µM	1.61 µM	0.588 µM	> 100 µM	1.09 µM	5.34 µM	0.549 µM	4.54 µM	0.314 µM	1.88 µM	0.752 µM	41.4 µM	0.44 µM	> 100 µM	0.412 µM	2.82 µM	0.732 µM	10.5 µM
COc1ccc(-c2cc(-c3ccc(Nc4nc(Nc5ccc(Cl)cc5)nc(Nc5ccc(Cl)cc5)n4)cc3)no2)cc1	6.26 µM	> 100 µM	20.4 µM	72.7 µM	12.4 µM	> 100 µM	14 µM	61.1 µM	33.2 µM	> 100 µM	17.1 µM	57.5 µM	3.65 µM	25.5 µM	11.3 µM	25.6 µM	23.1 µM	57.6 µM	9.3 µM	38.2 µM
NC1=NC(=O)N2CC12 (stereo unspecified)	26.7 µM and 54.5 µM	316 µM	65.1 µM and 144 µM	> 100 µM and 389 µM	301 µM	> 100 µM and 1140 µM	228 µM	> 100 µM and 875 µM	66.6 µM and 85 µM	> 100 µM and 245 µM	63.3 µM	> 100 µM and 329 µM	86.1 µM and 321 µM	1130 µM	48.2 µM and 58.4 µM	> 100 µM and 143 µM	130 µM	> 100 µM and 408 µM	–	> 100 µM and 209 µM
N=c1ccn2c(n1)OC1C(OP(=O)(O)O)C(CO)OC12 (stereo unspecified)	–	> 100 µM	–	> 100 µM	–	> 100 µM	–	> 100 µM	–	> 100 µM	–	> 100 µM	–	> 100 µM	–	> 100 µM	–	> 100 µM	–	> 100 µM
CCCCCCCCCCCCCOC(=O)c1c(C)[nH]c(/C=C2\N=C(c3ccc[nH]3)C=C2OC)c1C	0.0583 µM	> 43.4 µM	0.174 µM	20 µM	0.0262 µM	–	0.481 µM	10.8 µM	0.588 µM	> 100 µM	0.0294 µM	0.157 µM	0.02 µM	> 100 µM	0.0204 µM	> 37.1 µM	0.0329 µM	0.139 µM	0.109 µM	> 59 µM
Cc1cc(Cl)ccc1Nc1sc(C(=O)c2cc3cc(Cl)ccc3o2)c(N)c1C#N	–	> 100 µM	–	> 73.1 µM	–	> 100 µM	–	19.2 µM	–	> 100 µM	–	> 100 µM	–	> 100 µM	–	> 69.9 µM	–	> 100 µM	–	26.9 µM
O=C1C=C(Nc2ccccc2)c2ncccc2C1=O	1.27 µM	3.58 µM	1.82 µM	3.28 µM	0.321 µM	1.28 µM	1.64 µM	3 µM	1.29 µM	2.66 µM	1.91 µM	3.67 µM	0.439 µM	2.29 µM	0.34 µM	1.28 µM	0.224 µM	0.521 µM	0.446 µM	1.8 µM
CS(=O)(=O)CCNCc1ccc(-c2ccc3ncnc(Nc4ccc(OCc5ccccc5)c(C(F)(F)F)c4)c3c2)o1	6.76 µM	18.9 µM	7.61 µM	22.7 µM	4.65 µM	10.2 µM	6.51 µM	25 µM	4.74 µM	9.09 µM	5.68 µM	11.4 µM	6.88 µM	> 21 µM	4.62 µM	8.66 µM	4.76 µM	8.66 µM	7.99 µM	> 25 µM
CCCCCCN(CCCCCC)C(=N)c1ccnc2ccccc12	3.04 µM	13.2 µM	2.15 µM	9.67 µM	3.82 µM	16.6 µM	3.07 µM	16.6 µM	2.37 µM	5.62 µM	3.66 µM	12.2 µM	5.81 µM	20.2 µM	3.27 µM	17.8 µM	4.88 µM	19.6 µM	13 µM	26.5 µM
CC[C@H](C)c1occ2c(O)c(C(=O)O)c(=O)cc-2c1C	–	56.4 µM	–	> 100 µM	–	32.1 µM	–	93.5 µM	–	> 100 µM	–	34 µM	–	> 100 µM	–	44.5 µM	–	37.4 µM	–	> 100 µM
C=C(C)C(=O)NC(N)=NC#N	57.5 µM	56.3 µM and 206 µM	33 µM	98.6 µM and 126 µM	103 µM	243 µM	201 µM	> 46.4 µM and 345 µM	69.4 µM	> 66.6 µM and 200 µM	134 µM	261 µM	–	293 µM	41 µM	39.4 µM and 170 µM	87 µM	> 81.7 µM and 230 µM	139 µM	62.5 µM and 354 µM
CCOC(=O)[C@H](CSSc1ncnc2cc[nH]c12)NC(=O)[C@@H](C)c1ccc2cc(OC)ccc2c1	0.0375 µM	> 100 µM	0.265 µM	> 59.6 µM	1.73 µM	> 100 µM	6.96 µM	> 50.9 µM	3.62 µM	> 100 µM	0.791 µM	> 29 µM	2.78 µM	> 100 µM	1.64 µM	> 100 µM	0.425 µM	> 100 µM	2.74 µM	> 100 µM
CN(C)CC/C=C1\c2ccccc2Sc2ccc(Cl)cc21	1.46 µM	–	1.91 µM	3.95 µM and 28.3 µM	3.79 µM	14 µM and 30.6 µM	3.02 µM	14.1 µM and 28 µM	1.49 µM	3.11 µM and 20.6 µM	1.95 µM	3.71 µM and 31.7 µM	3.03 µM	12.5 µM and 26 µM	2.18 µM	5.4 µM and 35.4 µM	1.51 µM	3.09 µM and 26.7 µM	3.78 µM	14.1 µM and 30.1 µM
